Test results published in patent publication US12371454B2, “Cyclic peptide compound having Kras inhibitory action” (priority 2019, dated 2025).
Starred links: 1 amine or outer side, 2 acyl side, 3 side chain; linkers in the order of their positions; H or OH if unused. Positions of bridges follow the written chain, without caps; N, C: chain ends. Non-standard residues stand in square brackets, D forms with d. Residues, ends and D or L forms follow the SMILES beside them. *: point of attachment. hPhe(3-Cl-4-CF3) = N[C@@H](CCc1ccc(C(F)(F)F)c(Cl)c1)C(=O)O; hPhe(3-F,4-CF3) = N[C@@H](CCc1ccc(C(F)(F)F)c(F)c1)C(=O)O; NMePhe(4-CF3) = CN[C@@H](Cc1ccc(C(F)(F)F)cc1)C(=O)O; NEtAsp = CCN([C@@H](CC(=O)[*:3])C(=O)[*:2])[*:1]; 3Oxa8azabicyclo(3.2.1)octane = C1CC2COCC1N2*; NMePhe(4-Cl) = CN[C@@H](Cc1ccc(Cl)cc1)C(=O)O; NMePhe(4-Me) = CN[C@@H](Cc1ccc(C)cc1)C(=O)O; NMePhe(4-F) = CN[C@@H](Cc1ccc(F)cc1)C(=O)O; NMedβ3hAla = C[C@H](CC(=O)[*:2])N(C)[*:1]; NMeGly(cPent) = CN[C@H](C(=O)O)C1CCCC1; Pro(4,4-F2) = O=C(O)[C@@H]1CC(F)(F)CN1; NMe3Pal = CN[C@@H](Cc1cccnc1)C(=O)O; NMeGly(cBu) = CN[C@H](C(=O)O)C1CCC1; NMeCha = CN[C@@H](CC1CCCCC1)C(=O)O; NMeChg = CN[C@H](C(=O)O)C1CCCCC1; NMeI = CC[C@H](C)[C@H](NC)C(=O)O; NMeD = CN[C@@H](CC(=O)O)C(=O)O; NMeL = CN[C@@H](CC(C)C)C(=O)O; NEtAla = CCN[C@@H](C)C(=O)O; NMeNva = CCC[C@H](NC)C(=O)O; NMeV = CN[C@H](C(=O)O)C(C)C; d(β3hA) = C[C@@H](N)CC(=O)O; NMeS = CN[C@@H](CO)C(=O)O; NMeA = CN[C@@H](C)C(=O)O; Piperidide = C1CCN(*)CC1; dNMeA = CN[C@H](C)C(=O)O; Ac5c = NC1(C(=O)O)CCCC1; Aze = O=C(O)[C@@H]1CCN1; Sar = CNCC(=O)O; Propyl = CCC*

Test system: Human pancreatic cancer cell line AsPC-1
Assay: Measurement of AsPC-1 cell growth inhibition (AsPC-1 CGI)
Format: cell-based
Conditions: 96 h
Method in brief: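 AsPC-1 cells in 15% FBS RPMI-1640 were exposed to test compound for 96 hours at 37° C, with CellTiter-Glo as endpoint.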

SMILES | IC50
CCC[C@H]1C(=O)N(C)[C@H](C(=O)N2CCCCC2)CC(=O)N(C)[C@@H](CC(C)C)C(=O)N[C@@H]([C@@H](C)CC)C(=O)N(C)[C@@H](C)C(=O)N2CC[C@H]2C(=O)N(C)[C@@H](CC2CCCCC2)C(=O)N(C)CC(=O)N[C@@H](CCc2ccc(C(F)(F)F)c(Cl)c2)C(=O)N2CCC[C@H]2C(=O)NC2(CCCC2)C(=O)N1C [Compound 995] ([NMeL]I[NMeA][Aze][NMeCha][Sar][hPhe(3-Cl-4-CF3)]P[Ac5c][NMeNva][NMeD]-Piperidide; lactam N-11) | 100 to 500 nM
CC[C@H](C)[C@@H]1NC(=O)[C@H](CC(C)C)N(C)C(=O)C[C@@H](C(=O)N2C3CCC2COC3)N(C)C(=O)[C@H]([C@@H](C)CC)N(C)C(=O)C2(CCCC2)NC(=O)[C@@H]2CCCN2C(=O)[C@H](CCc2ccc(C(F)(F)F)c(Cl)c2)NC(=O)CN(C)C(=O)[C@H](C2CCCC2)N(C)C(=O)[C@@H]2CCN2C(=O)[C@H](C)N(C)C1=O [Compound 1002] ([NMeL]I[NMeA][Aze][NMeGly(cPent)][Sar][hPhe(3-Cl-4-CF3)]P[Ac5c][NMeI][NMeD]-{3Oxa8azabicyclo(3.2.1)octane}; lactam N-11) | 20 to 50 nM
CCC[C@H]1C(=O)NC2(CCCC2)C(=O)N(C)[C@@H](C2CCCCC2)C(=O)N(C)[C@H](C(=O)N2CCCCC2)CC(=O)N(C)[C@@H](CC(C)C)C(=O)N[C@@H]([C@@H](C)CC)C(=O)N(C)CC(=O)N(C)CC(=O)N(C)[C@@H](CC2CCCCC2)C(=O)N(C)CC(=O)N[C@@H](CCc2ccc(C(F)(F)F)c(Cl)c2)C(=O)N1C [Compound 1005] ([NMeL]I[Sar][Sar][NMeCha][Sar][hPhe(3-Cl-4-CF3)][NMeNva][Ac5c][NMeChg][NMeD]-Piperidide; lactam N-11) | 100 to 500 nM
CC[C@H](C)[C@@H]1NC(=O)[C@H](CC(C)C)N(C)C(=O)C[C@@H](C(=O)N2CCCCC2)N(C)C(=O)[C@H](C2CCCC2)N(C)C(=O)C2(CCCC2)NC(=O)[C@@H]2CCCN2C(=O)[C@H](CCc2ccc(C(F)(F)F)c(F)c2)NC(=O)CN(C)C(=O)[C@H](Cc2ccc(C)cc2)N(C)C(=O)[C@@H]2CCN2C(=O)[C@H](C)N(C)C1=O [Compound 1008] ([NMeL]I[NMeA][Aze][NMePhe(4-Me)][Sar][hPhe(3-F,4-CF3)]P[Ac5c][NMeGly(cPent)][NMeD]-Piperidide; lactam N-11) | 20 to 50 nM
CC[C@H](C)[C@@H]1NC(=O)[C@H](C)N(C)C(=O)C[C@@H](C(=O)N2CCCCC2)N(C)C(=O)[C@H](C2CCCCC2)N(C)C(=O)C2(CCCC2)NC(=O)[C@H](Cc2cccnc2)N(C)C(=O)[C@H](CCc2ccc(C(F)(F)F)c(Cl)c2)NC(=O)CN(C)C(=O)[C@H](CC2CCCCC2)N(C)C(=O)CN(C)C(=O)CN(C)C1=O [Compound 1012] ([NMeA]I[Sar][Sar][NMeCha][Sar][hPhe(3-Cl-4-CF3)][NMe3Pal][Ac5c][NMeChg][NMeD]-Piperidide; lactam N-11) | 100 to 500 nM
CC[C@H](C)[C@@H]1NC(=O)[C@H](C(C)C)N(C)C(=O)C[C@@H](C)NC(=O)[C@H](CC(C)C)N(C)C(=O)C2(CCCC2)NC(=O)[C@H](CC(C)C)N(C)C(=O)[C@H](CCc2ccc(C(F)(F)F)c(Cl)c2)NC(=O)CN(C)C(=O)[C@H](Cc2ccc(Cl)cc2)N(C)C(=O)CN(C)C(=O)CN(C)C1=O [Compound 1014] (cyclo([Ac5c][NMeL][d(β3hA)][NMeV]I[Sar][Sar][NMePhe(4-Cl)][Sar][hPhe(3-Cl-4-CF3)][NMeL])) | 100 to 500 nM
CC[C@H](C)[C@@H]1NC(=O)[C@H](CC(C)C)N(C)C(=O)C[C@@H](C)NC(=O)[C@H](C(C)C)N(C)C(=O)C2(CCCC2)NC(=O)[C@@H]2CCCN2C(=O)[C@H](CCc2ccc(C(F)(F)F)c(Cl)c2)NC(=O)CN(C)C(=O)[C@H](Cc2ccc(Cl)cc2)N(C)C(=O)[C@@H]2CCN2C(=O)[C@H](C)N(C)C1=O [Compound 1018] (cyclo([Ac5c][NMeV][d(β3hA)][NMeL]I[NMeA][Aze][NMePhe(4-Cl)][Sar][hPhe(3-Cl-4-CF3)]P)) | 100 to 500 nM
CC[C@H](C)[C@@H]1NC(=O)[C@H](CC(C)C)N(C)C(=O)C[C@@H](C)NC(=O)[C@H](C2CCCC2)N(C)C(=O)C2(CCCC2)NC(=O)[C@@H]2CCCN2C(=O)[C@H](CCc2ccc(C(F)(F)F)c(Cl)c2)NC(=O)CN(C)C(=O)[C@H](Cc2ccc(C)cc2)N(C)C(=O)[C@@H]2CCN2C(=O)[C@H](C)N(CC)C1=O [Compound 1023] (cyclo([Ac5c][NMeGly(cPent)][d(β3hA)][NMeL]I[NEtAla][Aze][NMePhe(4-Me)][Sar][hPhe(3-Cl-4-CF3)]P)) | 50 to 100 nM
CCCOC[C@H]1C(=O)N(C)CC(=O)N[C@@H](CCc2ccc(C(F)(F)F)c(F)c2)C(=O)N2CCC[C@H]2C(=O)NC2(CCCC2)C(=O)N(C)[C@@H](C2CCCC2)C(=O)N(C)[C@H](C(=O)N2CCCCC2)CC(=O)N(C)[C@@H](CC(C)C)C(=O)N[C@@H]([C@@H](C)CC)C(=O)N(C)[C@@H](C)C(=O)N2CC[C@H]2C(=O)N1C [Compound 1029] ([NMeL]I[NMeA][Aze][NMeS](Propyl)[Sar][hPhe(3-F,4-CF3)]P[Ac5c][NMeGly(cPent)][NMeD]-Piperidide; lactam N-11) | 20 to 50 nM
CCCOC[C@H]1C(=O)N(C)CC(=O)N[C@@H](CCc2ccc(C(F)(F)F)c(F)c2)C(=O)N2CCC[C@H]2C(=O)NC2(CCCC2)C(=O)N(C)[C@@H](C2CCCC2)C(=O)N(C)[C@H](C(=O)N2C3CCC2COC3)CC(=O)N(C)[C@@H](CC(C)C)C(=O)N[C@@H]([C@@H](C)CC)C(=O)N(C)[C@@H](C)C(=O)N2CC[C@H]2C(=O)N1C [Compound 1030] ([NMeL]I[NMeA][Aze][NMeS](Propyl)[Sar][hPhe(3-F,4-CF3)]P[Ac5c][NMeGly(cPent)][NMeD]-{3Oxa8azabicyclo(3.2.1)octane}; lactam N-11) | 20 to 50 nM
CC[C@H](C)[C@@H]1NC(=O)[C@H](C2CCC2)N(C)C(=O)C[C@@H](C(=O)N2CCCCC2)N(C)C(=O)[C@H](C(C)C)N(C)C(=O)C2(CCCC2)NC(=O)[C@@H]2CCCN2C(=O)[C@H](CCc2ccc(C(F)(F)F)c(Cl)c2)NC(=O)CN(C)C(=O)[C@H](CC2CCCCC2)N(C)C(=O)[C@@H]2CCN2C(=O)[C@H](C)N(C)C1=O [Compound 1036] ([NMeGly(cBu)]I[NMeA][Aze][NMeCha][Sar][hPhe(3-Cl-4-CF3)]P[Ac5c][NMeV][NMeD]-Piperidide; lactam N-11) | 100 to 500 nM
CC[C@H](C)[C@@H]1NC(=O)[C@H](CC(C)C)N(C)C(=O)C[C@@H](C(=O)N2CCCCC2)N(C)C(=O)[C@H](C(C)C)N(C)C(=O)C2(CCCC2)NC(=O)[C@@H]2CCCN2C(=O)[C@H](CCc2ccc(C(F)(F)F)c(F)c2)NC(=O)CN(C)C(=O)[C@H](CC2CCCCC2)N(C)C(=O)[C@@H]2CCN2C(=O)[C@H](C)N(C)C1=O [Compound 1040] ([NMeL]I[NMeA][Aze][NMeCha][Sar][hPhe(3-F,4-CF3)]P[Ac5c][NMeV][NMeD]-Piperidide; lactam N-11) | 100 to 500 nM
CC[C@H](C)[C@@H]1NC(=O)[C@H](CC(C)C)N(C)C(=O)C[C@@H](C)N(C)C(=O)[C@H](C2CCCC2)N(C)C(=O)C2(CCCC2)NC(=O)[C@@H]2CCCN2C(=O)[C@H](CCc2ccc(C(F)(F)F)c(Cl)c2)NC(=O)CN(C)C(=O)[C@H](C2CCCC2)N(C)C(=O)[C@@H]2CCN2C(=O)[C@H](C)N(C)C1=O [Compound 1046] (cyclo([Ac5c][NMeGly(cPent)][NMedβ3hAla][NMeL]I[NMeA][Aze][NMeGly(cPent)][Sar][hPhe(3-Cl-4-CF3)]P)) | 20 to 50 nM
CC[C@H](C)[C@@H]1NC(=O)[C@H](CC(C)C)N(C)C(=O)C[C@@H](C(=O)N2CCCCC2)N(CC)C(=O)[C@H](C2CCCC2)N(C)C(=O)C2(CCCC2)NC(=O)[C@@H]2CCCN2C(=O)[C@H](CCc2ccc(C(F)(F)F)c(Cl)c2)NC(=O)CN(C)C(=O)[C@H](C2CCC2)N(C)C(=O)[C@@H]2CCN2C(=O)[C@H](C)N(C)C1=O [Compound 1047] ([NMeL]I[NMeA][Aze][NMeGly(cBu)][Sar][hPhe(3-Cl-4-CF3)]P[Ac5c][NMeGly(cPent)][NEtAsp]-Piperidide; lactam N-11) | 50 to 100 nM
CC[C@H](C)[C@@H]1NC(=O)[C@H](CC(C)C)N(C)C(=O)C[C@@H](C(=O)N2CCCCC2)N(C)C(=O)[C@H]([C@@H](C)CC)N(C)C(=O)C2(CCCC2)NC(=O)[C@@H]2CCCN2C(=O)[C@H](CCc2ccc(C(F)(F)F)c(Cl)c2)NC(=O)CN(C)C(=O)[C@H](Cc2ccc(F)cc2)N(C)C(=O)[C@@H]2CCN2C(=O)[C@H](C)N(C)C1=O [Compound 1060] ([NMeL]I[NMeA][Aze][NMePhe(4-F)][Sar][hPhe(3-Cl-4-CF3)]P[Ac5c][NMeI][NMeD]-Piperidide; lactam N-11) | 20 to 50 nM
CC[C@H](C)[C@@H]1NC(=O)[C@H](CC(C)C)N(C)C(=O)C[C@@H](C)N(C)C(=O)[C@H](C2CCCC2)N(C)C(=O)C2(CCCC2)NC(=O)[C@@H]2CC(F)(F)CN2C(=O)[C@H](CCc2ccc(C(F)(F)F)c(Cl)c2)NC(=O)CN(C)C(=O)[C@H](Cc2ccc(C(F)(F)F)cc2)N(C)C(=O)[C@@H]2CCN2C(=O)[C@H](C)N(C)C1=O [Compound 1062] (cyclo([Ac5c][NMeGly(cPent)][NMedβ3hAla][NMeL]I[NMeA][Aze][NMePhe(4-CF3)][Sar][hPhe(3-Cl-4-CF3)][Pro(4,4-F2)])) | 20 to 50 nM
CC[C@H](C)[C@@H]1NC(=O)[C@H](C)N(C)C(=O)C[C@@H](C)NC(=O)[C@H](C2CCCC2)N(C)C(=O)C2(CCCC2)NC(=O)[C@@H]2CCCN2C(=O)[C@H](CCc2ccc(C(F)(F)F)c(Cl)c2)NC(=O)[C@@H](C)N(C)C(=O)[C@H](C(C)C)N(C)C(=O)[C@@H]2CCN2C(=O)[C@H](C)N(C)C1=O [Compound 1066] (cyclo([Ac5c][NMeGly(cPent)][d(β3hA)][NMeA]I[NMeA][Aze][NMeV][dNMeA][hPhe(3-Cl-4-CF3)]P)) | 100 to 500 nM
CC[C@H](C)[C@@H]1NC(=O)[C@H](C(C)C)N(C)C(=O)C[C@@H](C)NC(=O)[C@H](C(C)C)N(C)C(=O)C2(CCCC2)NC(=O)[C@H](CC(C)C)N(C)C(=O)[C@H](CCc2ccc(C(F)(F)F)c(Cl)c2)NC(=O)CN(C)C(=O)[C@H](Cc2ccc(Cl)cc2)N(C)C(=O)CN(C)C(=O)CN(C)C1=O [Compound 1069] (cyclo([Ac5c][NMeV][d(β3hA)][NMeV]I[Sar][Sar][NMePhe(4-Cl)][Sar][hPhe(3-Cl-4-CF3)][NMeL])) | 100 to 500 nM
